Source: PubChem BioAssay (NCI)
Where “and” joins values, the source holds several entries; their conditions need not be identical. Equal values may be shown once.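 Interpolation was linear, between the two tested concentrations surrounding the appropriate level; five concentrations were tested over 48 hours in 96-well plates. GI50 is the concentration that inhibits growth by half. TGI: concentration producing complete growth inhibition.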

How the values were obtained:
Assay in all cases: NCI-60 cell line screen, 48 h
[1] = test system: EKVX NSCLC
[2] = test system: UACC-257 melanoma
[3] = test system: HCT-15 colon
[4] = test system: NCI-H522 lung
[5] = test system: CCRF-CEM leukemia
[6] = test system: RXF 393 renal
[7] = test system: SF-268 CNS
[8] = test system: CAKI-1 renal
[9] = test system: T-47D breast
[10] = test system: HT29 colon
[11] = test system: SK-OV-3 ovarian
[12] = test system: NCI/ADR-RES ovarian
[13] = test system: SK-MEL-2 melanoma
[14] = test system: SK-MEL-5 melanoma
[15] = test system: SN12C renal
[16] = test system: OVCAR-3 ovarian
[17] = test system: OVCAR-8 ovarian
[18] = test system: SF-539 CNS
[19] = test system: PC-3 prostate
[20] = test system: MDA-MB-231 breast
[21] = test system: 786-0 renal
[22] = test system: HCC-2998 colon
[23] = test system: COLO 205 colon
[24] = test system: NCI-H226 lung
[25] = test system: MOLT-4 leukemia
[26] = test system: MDA-MB-435
[27] = test system: HOP-62 NSCLC
[28] = test system: ACHN renal
[29] = test system: OVCAR-5 ovarian
[30] = test system: HOP-92 NSCLC
[31] = test system: DU-145 prostate
[32] = test system: MALME-3M melanoma
[33] = test system: KM12 colon
[34] = test system: HCT-116 colon
[35] = test system: LOX IMVI melanoma
[36] = test system: M14 melanoma
[37] = test system: UACC-62 melanoma
[38] = test system: RPMI-8226 leukemia
[39] = test system: U251 CNS
[40] = test system: NCI-H460 lung
[41] = test system: SF-295 CNS
[42] = test system: NCI-H23 lung
[43] = test system: SK-MEL-28 melanoma
[44] = test system: SNB-19 CNS
[45] = test system: SNB-75 CNS
[46] = test system: K-562 leukemia
[47] = test system: TK-10 renal
[48] = test system: SW-620 colon
[49] = test system: BT-549 breast
[50] = test system: IGROV1 ovarian
[51] = test system: HS 578T breast
[52] = test system: A549 NSCLC
[53] = test system: MCF7 breast
[54] = test system: UO-31 renal
[55] = test system: HL-60(TB) leukemia
[56] = test system: OVCAR-4 ovarian
[57] = test system: SR leukemia
[58] = test system: A498 renal

`CC(C)C[C@H](NC(=O)[C@H]1O[C@@H]1C(=O)O)C(=O)NCCc1ccc(O)cc1` gave a GI50 [1] greater than 100 µM, a TGI [1] greater than 100 µM and a GI50 [2] greater than 100 µM. It also gave a TGI [2] greater than 100 µM, a GI50 [3] greater than 100 µM and a TGI [3] greater than 100 µM. For the same compound, the GI50 [4] was greater than 100 µM, the TGI [4] was greater than 100 µM and the GI50 [5] was greater than 100 µM. The TGI [5] was greater than 100 µM, the GI50 [6] was greater than 100 µM and the TGI [6] was greater than 100 µM. It also gave a GI50 [7] greater than 100 µM, a TGI [7] greater than 100 µM and a GI50 [8] greater than 100 µM. It also gave a TGI [8] greater than 100 µM, a GI50 [9] greater than 100 µM and a TGI [9] greater than 100 µM. For the same compound, the GI50 [10] was greater than 100 µM, the TGI [10] was greater than 100 µM and the GI50 [11] was greater than 100 µM. The TGI [11] was greater than 100 µM, the GI50 [12] was greater than 100 µM and the TGI [12] was greater than 100 µM. For the same compound, the GI50 [13] was greater than 100 µM, the TGI [13] was greater than 100 µM and the GI50 [14] was greater than 100 µM. For the same compound, the TGI [14] was greater than 100 µM, the GI50 [15] was greater than 100 µM and the TGI [15] was greater than 100 µM. The GI50 [16] was greater than 100 µM, the TGI [16] was greater than 100 µM and the GI50 [17] was greater than 100 µM. The TGI [17] was greater than 100 µM, the GI50 [18] was greater than 100 µM and the TGI [18] was greater than 100 µM. For the same compound, the GI50 [19] was greater than 100 µM, the TGI [19] was greater than 100 µM and the GI50 [20] was greater than 100 µM. It also gave a TGI [20] greater than 100 µM, a GI50 [21] greater than 100 µM and a TGI [21] greater than 100 µM. It also gave a GI50 [22] greater than 100 µM, a TGI [22] greater than 100 µM and a GI50 [23] greater than 100 µM. For the same compound, the TGI [23] was greater than 100 µM, the GI50 [24] was greater than 100 µM and the TGI [24] was greater than 100 µM. For the same compound, the GI50 [25] was greater than 100 µM, the TGI [25] was greater than 100 µM and the GI50 [26] was greater than 100 µM. The TGI [26] was greater than 100 µM, the GI50 [27] was greater than 100 µM and the TGI [27] was greater than 100 µM. It also gave a GI50 [28] greater than 100 µM, a TGI [28] greater than 100 µM and a GI50 [29] greater than 100 µM. The TGI [29] was greater than 100 µM, the GI50 [30] was greater than 100 µM and the TGI [30] was greater than 100 µM. For the same compound, the GI50 [31] was greater than 100 µM, the TGI [31] was greater than 100 µM and the GI50 [32] was greater than 100 µM. It also gave a TGI [32] greater than 100 µM, a GI50 [33] greater than 100 µM and a TGI [33] greater than 100 µM. For the same compound, the GI50 [34] was greater than 100 µM, the TGI [34] was greater than 100 µM and the GI50 [35] was 74.1 µM. For the same compound, the TGI [35] was greater than 100 µM, the GI50 [36] was greater than 100 µM and the TGI [36] was greater than 100 µM. For the same compound, the GI50 [37] was greater than 100 µM, the TGI [37] was greater than 100 µM and the GI50 [38] was greater than 100 µM. For the same compound, the TGI [38] was greater than 100 µM, the GI50 [39] was greater than 100 µM and the TGI [39] was greater than 100 µM. The GI50 [40] was greater than 100 µM, the TGI [40] was greater than 100 µM and the GI50 [41] was greater than 100 µM. The TGI [41] was greater than 100 µM, the GI50 [42] was greater than 100 µM and the TGI [42] was greater than 100 µM. For the same compound, the GI50 [43] was greater than 100 µM, the TGI [43] was greater than 100 µM and the GI50 [44] was greater than 100 µM. The TGI [44] was greater than 100 µM, the GI50 [45] was greater than 100 µM and the TGI [45] was greater than 100 µM. For the same compound, the GI50 [46] was greater than 100 µM, the TGI [46] was greater than 100 µM and the GI50 [47] was greater than 100 µM. The TGI [47] was greater than 100 µM, the GI50 [48] was greater than 100 µM and the TGI [48] was greater than 100 µM. For the same compound, the GI50 [49] was greater than 100 µM, the TGI [49] was greater than 100 µM and the GI50 [50] was greater than 100 µM. It also gave a TGI [50] greater than 100 µM, a GI50 [51] greater than 100 µM and a TGI [51] greater than 100 µM. It also gave a GI50 [52] greater than 100 µM, a TGI [52] greater than 100 µM and a GI50 [53] greater than 100 µM. For the same compound, the TGI [53] was greater than 100 µM, the GI50 [54] was 38.4 µM and the TGI [54] was greater than 100 µM.

With `NC(=O)c1oc([N+](=O)[O-])c(-c2ccccc2)c1-c1ccccc1` the TGI [1] was 48.4 µM, the TGI [2] was 34.7 µM and the TGI [55] was 70 µM. It also gave a TGI [3] of 35.4 µM, a TGI [4] of 31.5 µM and a TGI [5] of 38.9 µM. The TGI [6] was greater than 100 µM, the TGI [7] was greater than 100 µM and the TGI [8] was 48.1 µM. The TGI [9] was 50.3 µM, the TGI [10] was greater than 100 µM and the TGI [11] was greater than 100 µM. It also gave a TGI [12] of 57.2 µM, a TGI [13] of 36.3 µM and a TGI [14] of 14.2 µM. For the same compound, the TGI [15] was 5.09 µM, the TGI [16] was 22.7 µM and the TGI [17] was 68.2 µM. The TGI [18] was 38.1 µM, the TGI [19] was 47.9 µM and the TGI [56] was 28.5 µM. For the same compound, the TGI [20] was 38.6 µM, the TGI [21] was 89.7 µM and the TGI [23] was 42.1 µM. It also gave a TGI [24] of 28.1 µM, a TGI [25] of 96.6 µM and a TGI [26] of 28.7 µM. For the same compound, the TGI [27] was greater than 100 µM, the TGI [28] was 82 µM and the TGI [29] was 63.2 µM. The TGI [30] was 42 µM, the TGI [31] was 93.4 µM and the TGI [32] was 16 µM. The TGI [33] was 40.9 µM, the TGI [34] was 36 µM and the TGI [35] was 29.1 µM. It also gave a TGI [36] of 32.5 µM, a TGI [37] of 21.3 µM and a TGI [39] of 71.1 µM. For the same compound, the TGI [40] was greater than 100 µM, the TGI [41] was 35.3 µM and the TGI [42] was 35 µM. For the same compound, the TGI [43] was greater than 100 µM, the TGI [44] was greater than 100 µM and the TGI [45] was greater than 100 µM. For the same compound, the TGI [46] was 59.6 µM, the TGI [47] was 72.8 µM and the TGI [48] was greater than 100 µM. The TGI [49] was 40.6 µM, the TGI [50] was 31.5 µM and the TGI [57] was 34.2 µM. It also gave a TGI [51] of 28.2 µM, a TGI [52] of 44.5 µM and a TGI [53] greater than 100 µM. For the same compound, the TGI [54] was 52.2 µM.

`CCCCCCCCCCCCCCCC[N+](C)(C)CCN(Cc1ccc(OC)cc1)c1ncccn1` gave a GI50 [1] of 1.89 µM, a TGI [1] of 7.52 µM and a GI50 [2] of 5.65 µM. The TGI [2] was 39.8 µM, the GI50 [55] was 1.4 µM and 0.661 µM and the TGI [55] was 3.99 µM and 4.79 µM. For the same compound, the GI50 [3] was 18.6 µM, the TGI [3] was 60.1 µM and the GI50 [6] was 1.52 µM and 0.821 µM. For the same compound, the TGI [6] was 3.49 µM and 2.43 µM, the GI50 [7] was 1.39 µM and the TGI [7] was 3.74 µM. For the same compound, the GI50 [8] was 8.14 µM, the TGI [8] was 34 µM and the GI50 [9] was 1.28 µM. The TGI [9] was 2.98 µM, the GI50 [11] was 2.24 µM and the TGI [11] was 7.24 µM. For the same compound, the GI50 [12] was 18.7 µM and 3.94 µM, the TGI [12] was 64 µM and > 100 µM and the GI50 [13] was 2.88 µM. It also gave a TGI [13] of 6.95 µM, a GI50 [14] of 2.68 µM and a TGI [14] of 8.77 µM. For the same compound, the GI50 [16] was 1.14 µM, the TGI [16] was 3.32 µM and the GI50 [58] was 1.69 µM. For the same compound, the TGI [58] was 5.21 µM, the GI50 [56] was 1.85 µM and the TGI [56] was 4.88 µM. For the same compound, the GI50 [20] was 2 µM, the TGI [20] was 4.94 µM and the GI50 [24] was 2.77 µM. It also gave a TGI [24] of 14 µM, a GI50 [27] of 1.54 µM and a TGI [27] of 2.95 µM. For the same compound, the GI50 [28] was 8.54 µM, the TGI [28] was 32.9 µM and the GI50 [29] was 1.91 µM. The TGI [29] was 4.62 µM, the GI50 [35] was 1.17 µM and the TGI [35] was 3.33 µM. The GI50 [37] was 1.75 µM, the TGI [37] was 4.37 µM and the GI50 [43] was 2.1 µM. For the same compound, the TGI [43] was 4.5 µM, the GI50 [45] was 2.28 µM and the TGI [45] was 6.53 µM. It also gave a GI50 [46] of 0.838 µM, a TGI [46] greater than 100 µM and a GI50 [49] of 2.43 µM. For the same compound, the TGI [49] was 5.83 µM, the GI50 [57] was 1.25 µM and the TGI [57] was greater than 100 µM. It also gave a GI50 [51] of 1.76 µM, a TGI [51] of 4.4 µM and a GI50 [54] of 5.65 µM. It also gave a TGI [54] of 52.9 µM.
